In US7524868B2, “Substituted pyrazoline compounds, their preparation and use as medicaments” (Laboratorios Del Dr. Esteve, S.A., priority 2004, dated 2009):

Experiment: In-vivo testing for antiobesic activity
Conditions: rats
[1] = 10 mg/kg body weight daily intraperitoneally over 14 days

In the case of `O=C(NN1CCCCC1)C1=NN(c2ccc(Cl)cc2Cl)C(c2ccc(Cl)cc2)C1` (stereo not drawn) [Example 1, N-piperidinyl-5-(4-chlorophenyl)-1-(2,4-dichlorophenyl)-4,5-dihydro-1H-pyrazole-3-carboxamide], the “body weight (FIG. 1)” value [1] is reported as “body weight is lowered”, the “food intake (FIG. 2)” value [1] is reported as “reduction of food intake” and the “body weight effect after the treatment is ended (FIG. 1)” value (after end of 14 days of 10 mg/kg daily intraperitoneally) is reported as “also observed after the treatment is ended”.
